Assay results as given in PubChem BioAssay AID1259418 (Broad Institute, 2018).
Several values for one entry are separate records, joined by “and”; a condition that tells them apart may be missing. Equal entries are not always repeated. Results filed as inconclusive are left out. Activity calls are given as the source filed them.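 Rule for the calls: active = fitted half-maximal concentration of signal decrease at or below twice the sample's top tested concentration; inconclusive = flat curve between -70 and -30 percent, or poor fit; inactive = flat within 30 percent, signal rise, or potency above limit.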 Starred links: 1 amine or outer side, 2 acyl side, 3 side chain; linkers in the order of their positions; H or OH if unused. Positions of bridges follow the written chain, without caps; N, C: chain ends. Non-standard residues stand in square brackets, D forms with d. Residues, ends and D or L forms follow the SMILES beside them. ξ: configuration not given here. *: point of attachment. pTerphenylCO(4''-OnC5H11) = CCCCCOc1ccc(-c2ccc(-c3ccc(C(=O)*)cc3)cc2)cc1; ξOrn(4,5-diOH) = O=C(C(CC(O)C(O)N[*:3])N[*:1])[*:2]; ξhTyr(βξ-OH,γξ-OH) = NC(C(=O)O)C(O)C(O)c1ccc(O)cc1; ξPro(3ξ-OH,4ξ-Me) = CC1CNC(C(=O)O)C1O; Hyp = O=C(O)[CH]1C[CH](O)CN1

Each compound was assayed against T. gondii ME49Luc in IFN-y HeLa, luciferase, 72 h (assay: T. gondii growth inhibition with IFN-gamma, dose response, cell-based, ME49Luc, HeLa, luciferase, 72 h (AID 1259418)).
For `COc1ccccc1C(=O)Nc1ccc(-c2nc(-c3ccccc3)co2)cc1`, the AC50 was 33.3 µM.
With `O=C(C(=O)N1CCN(c2ncnc3c2nnn3Cc2ccccc2)CC1)c1c[nH]c2ccccc12` the AC50 was 13.5 µM.
`CCCN1CCN(CCCNc2nc(-c3ccc(OC)cc3)nc3ccccc23)CC1` was tested, and the AC50 was 21.9 µM.
`CCc1nc(OCC(=O)Nc2ccc(Cl)cc2Cl)c2ccccc2n1` gave an AC50 of 30 µM.
In the case of `CN(C)CCNC(=O)c1c2c(NCc3cccnc3)ncnc2n2ccccc12`, the AC50 is reported as 32.4 µM.
In the case of `CC(C)C#Cc1ccc([C@@H]2[C@@H](CO)N(C(=O)c3cccc(F)c3)[C@H]2C#N)cc1`, the AC50 is reported as 14.2 µM and 27.9 µM.
`CC(C)N1c2ccc(F)cc2[C@@H]2CN(C(=O)c3ccco3)CC[C@H]21` showed an AC50 of 12.8 µM.
Work on `Fc1ccccc1CSc1nc(Nc2ccc3c(c2)OCO3)c2ccccc2n1` yielded an AC50 of 33.2 µM.
In the case of `C[C@@H]1CN(Cc2ccc(F)cc2)CCN1C(=O)COc1ccc(Cl)cc1NC(N)=O`, the AC50 is reported as > 39 µM (inactive).
In the case of `CN(C)c1nc(N2CCCC2)nc2c1CCN(Cc1ccoc1)CC2`, the AC50 is reported as 16 µM.
For `O=C(c1ccc(F)cc1)N1CC(=O)N2[C@@H](CO)[C@H](c3ccc(C#CCC4CCCC4)cc3)[C@@H]2C1`, the AC50 was 17.9 µM and 10.9 µM.
For `CS(=O)(=O)N1CSC[C@@H]1C(=O)NCCc1csc(-c2ccccc2)n1`, the AC50 was 30.8 µM.
With `N#C[C@H]1[C@H](c2ccc(-c3cccc(F)c3)cc2)[C@@H](CO)N1C(=O)NC1CCCC1` the AC50 was 16.7 µM.
`COc1ccc(-c2nc3c(s2)CN(S(=O)(=O)c2ccccc2C)CC3)cc1` was tested, and the AC50 was 6.3 µM and 8.21 µM.
With `COc1cccc(NC(=O)N2CC(=O)N3[C@@H](CO)[C@H](c4ccc(C#CCC5CCCC5)cc4)[C@@H]3C2)c1` the AC50 was 20 µM.
`CCCCC(CC)CNC(=O)CC1Nc2c3ccccc3nc(=S)n2C1=O` (stereo not given) showed an AC50 of 17.9 µM.
`COc1ccc(-c2nc(NCC3CCN(CCc4ccc(F)cc4)CC3)c3ccccc3n2)cc1` gave an AC50 of 12.2 µM.
With `O=S(=O)(c1ccc(Cl)s1)N1CCC2(CC1)NCCN=C2NCc1ccc2c(c1)OCO2` the AC50 was 34.8 µM.
For `CCOC(=O)c1nn(Cc2ccccc2)c2c1CN(C(=O)CN1CC(c3ccccc3)CC1=O)CC2` (stereo not given), the AC50 was > 39 µM (inactive).
For `Cc1ccc(-c2nc(Cn3nnc(-c4nc(-c5ccccc5)no4)c3C)c(C)o2)cc1`, the AC50 was > 20 µM (inactive).
Compound `COc1ccc(-c2nc(Nc3ccc(OC)cc3OC)c3ccccc3n2)cc1` has an AC50 of 13.3 µM.
`O=S(=O)(c1ccc2c(c1)CCCC2)N1CCC2(CC1)NCCN=C2NCc1ccc(Cl)cc1` gave an AC50 of 9.16 µM.
In the case of `Cc1csc(-c2cc(S(=O)(=O)NCCCN3CCC(C)CC3)c(C)s2)n1`, the AC50 is reported as > 39 µM (inactive).
With `CCc1ccc(S(=O)(=O)N2CCC3(CC2)NCCN=C3NCc2ccc(F)cc2)cc1` the AC50 was 6.64 µM.
For `Cc1ccccc1-c1ccc([C@H]2[C@H](CO)N3C(=O)CN(C(=O)c4ccncc4)C[C@@H]23)cc1`, the AC50 was 21.5 µM.
With `CCCCc1ccc(Nc2ncnc3c2cnn3-c2ccc(C)cc2C)cc1` the AC50 was 8.05 µM.
Compound `Clc1ccc(-c2nc(NCc3ccc4c(c3)OCO4)c3ccccc3n2)cc1` has an AC50 of 11.3 µM.
For `Cc1nnsc1CN(C)Cc1[nH]c2ccc(F)cc2c1C`, the AC50 was > 39 µM (inactive).
In the case of `Cc1ccc(S(=O)(=O)N2CCC3(CC2)NCCN=C3NCc2ccc(F)c(Cl)c2)cc1C`, the AC50 is reported as 16.5 µM.
`Cc1ccc(OCC(=O)Nc2ccc(-c3nc(-c4ccccc4)co3)cc2)cc1` was tested, and the AC50 was > 39 µM (inactive).
For `CCCCNc1ncnc2c1cnn2-c1ccc(C)cc1C`, the AC50 was 28.1 µM.
In the case of `O=C(c1ccc(-n2nc(C(F)(F)F)c3c2CCCC3)cc1)N1CCC2(CC1)OCCO2`, the AC50 is reported as 1.4 µM.
Work on `CCOc1ccccc1-c1nc(CN(c2cccc(OC)c2)S(=O)(=O)c2ccc(C)cc2)c(C)o1` yielded an AC50 of 9.59 µM.
`CC(C)CC#Cc1ccc([C@H]2[C@H]3CN(C(=O)c4cccc(F)c4)CC(=O)N3[C@H]2CO)cc1` gave an AC50 of 20.3 µM.
In the case of `CCOC(=O)c1ccc(NC(=O)N2CCN(Cc3nc(-c4ccc(C)cc4)oc3C)CC2)cc1`, the AC50 is reported as 37.2 µM.
In the case of `O=C(CC1N=C2c3ccccc3N=C(SCc3ccccc3F)N2C1=O)NCc1cccs1` (stereo not given), the AC50 is reported as 18.4 µM.
For `CCOc1ccccc1-c1nc(CN(c2cccc(OC)c2)S(=O)(=O)c2ccccc2)c(C)o1`, the AC50 was > 39 µM (inactive).
In the case of `Cn1cnc(S(=O)(=O)N2CCCCN3[C@H](CO)[C@H](c4ccc(C5=CCCCC5)cc4)[C@@H]3C2)c1`, the AC50 is reported as 18.4 µM and 20.2 µM.
For `COc1cc2nc(N3CCN(C(=O)c4ccco4)CC3)nc(N)c2cc1OC`, the AC50 was 18.4 µM.
Compound `CCCCNC(=O)CCC1N=C2c3ccccc3N=C(SCc3ccccc3Cl)N2C1=O` (stereo not given) has an AC50 of 24.1 µM.
`CCCCCOc1ccc(-c2ccc(-c3ccc(C(=O)NC4CC(O)C(O)NC(=O)C5C(O)C(C)CN5C(=O)C(C(C)O)NC(=O)C(C(O)C(O)c5ccc(O)cc5)NC(=O)C5CC(O)CN5C(=O)C(C(C)O)NC4=O)cc3)cc2)cc1` (stereo not drawn) ({pTerphenylCO(4''-OnC5H11)}-[ξOrn(4,5-diOH)]T[Hyp][ξhTyr(βξ-OH,γξ-OH)]T[ξPro(3ξ-OH,4ξ-Me)]; lactam 1-C; configuration not given here) was tested, and the AC50 was 25 µM.
Work on `COc1ccccc1Cn1ncc2c1CCCC2NC(=O)c1cc(-c2cccs2)no1` (stereo not given) yielded an AC50 of 14.1 µM.
With `CCOc1ccc(N(Cc2nc(-c3ccc(OC)cc3)oc2C)S(=O)(=O)c2ccccc2)cc1` the AC50 was 3.96 µM and 3.81 µM.
`CCOc1ccc(-c2nc(CN(c3ccccc3C)S(=O)(=O)c3cccs3)c(C)o2)cc1` showed an AC50 of 18.8 µM.
`O=C(Cc1ccncc1)N1CCCCN2[C@@H](CO)[C@H](c3ccc(C#Cc4ccccc4F)cc3)[C@@H]2C1` was tested, and the AC50 was 13.5 µM and 17.9 µM.
